Test results published in publication PMC9025555, “Chiral Recognition R- and RS- of New Antifungal: Complexation/Solubilization/Dissolution Thermodynamics and Permeability Assay” (Pharmaceutics, 2022).
≈ marks a conversion by molar mass, not a printed value.

Tests used:
[1] = Phase solubility study (shake-flask) in buffers with 2-HP-β-CD; settings: for order of the solubility: compared with reported FCZ and L-173
Description: An excess amount of the substance was placed in the glass screw-capped vials with the solvent. The vials were stirred in an air thermostat for a certain period of time (a period of 3 days was estimated to be enough for reaching the equilibrium between the solid and the solvent). Then, the saturated solutions were kept in a thermostat in mild conditions no less than 12 h and thereafter centrifuged at a fixed temperature (Biofuge pico, Thermo Electron LED GmbH, Langenselbold, Germany) for 10 min at 12,000 rpm. […] The experimental results were reported as an average of at least three replicated experiments. Temperature uncertainty was ±0.1 K. The sensitivity of UV spectroscopic determinations was characterized by the values of the limit of detection (LOD)/limit of quantification (LOQ).

[2] = Thermodynamics of complexation, solubilization and inherent dissolution (mole fraction scale); assay type: physicochemical; settings: for Gibbs free energy of transfer from pure buffer pH 2.0 to CD solution: Eq. (10)
Description: The Gibbs energy change of the inherent (in pure aqueous buffer without CD) dissolution ( ΔGinh/sol0,X ) in mole fraction scale was derived from the compound mole fraction solubility ( X20 ) in the following way:(8) ΔGinh/sol0,X=−RTlnX20
The standard solution enthalpies ΔHinh/sol0,X and entropies ΔSinh/sol0,X were calculated using a linear dependence between lnX20 and 1/T and van’t Hoff equation:(9) lnX20=−ΔHinh/sol0,X/RT+ΔSinh/sol0,X/R
The free energy of transferring a compound from the aqueous buffer solution to the CD solution of a certain CD concentration ( CCD ) (corresponds to solubilization process) was calculated by Equation (10):(10) ΔGslbz0,X(CCD)=−RTlnX2/X20, where X20 is the inherent solubility of the drug in mole fraction in the absence of CD at temperature T, and X2 is the total solubility in the presence of CD at the same temperature, R is the universal gas constant. The solubilization enthalpy ( ΔHslbz0,X(CCD) ) and entropy ( TΔSslbz0,X(CCD) ) were derived as follows:(11) ΔHslbz0,X(CCD)=ΔHsol0,X(CCD)−ΔHsol0,X (12) TΔSslbz0,X(CCD)=TΔSsol0,X(CCD)−TΔSsol0,X where ΔHsol0,X and ΔSsol0,X are the enthalpy and entropy of solubility process of the investigated compounds in the absence of CD, whereas ΔHsol0,X(CCD) and ΔSsol0,X(CCD) are the enthalpy and entropy of solubility process in the presence of CD with concentration CCD .
In order to determine the thermodynamic parameters of the complex formation for the compounds with CD, the stability constants ( KCX , mole fraction scale) at different temperatures were obtained using the phase diagrams and mole fractions ( X20 ) (analogously to Equation (3) by the following equation:(13) KCX=slope/X20⋅(1−slope),
Respectively, the Gibbs energy of the complexation in mole fraction scale ( ΔGC0,X ) was derived from the stability constants ( KCX ) in the following way:(14) ΔGC0,X=−RTlnKCX
The thermodynamic parameters of the complexation, i.e., the standard enthalpy change ( ΔHC0,X ) and the standard entropy change ( ΔSC0,X ) were calculated with the help of the integral form of the van’t Hoff’s equation:(15) lnKCX=−ΔHC0,X/RT+ΔSC0,X/R where a plot of lnKCX versus 1/T produces Slope = −ΔHC0,X/R and intercept equal to ΔSC0,X/R .
In order to understand the contribution of the hydrophobic effect (desolvation) to the complexation process on a relative scale, the approach disclosing the correlation of the free energy of complex formation with the free energy of the substance solubility in the same buffer solution proposed by Al Omari et al. was applied. To this end, the Gibbs energy of complex formation ( ΔGCT,X ) and inherent dissolution ( ΔGinh/solT,X ) in mole fraction scale were used. A linear correlation between ΔGCT,X and ΔGsolT,X results in Equation (16):(16) ΔGCT,X=a⋅ΔGinh/solT,X+b where the slope (a) is the magnitude of the hydrophobic effect, and the intercept (b) is the structural factor. […]

[3] = buffer pH 2.0, 298.15 K, mole fraction scale
[4] = buffer pH 2.0 without CD, 298.15 K, mole fraction scale

## O=C1S/C(=C\c2ccc(Cl)cc2)C(=O)N1CC(O)CN1CCN(CC(O)(Cn2cncn2)c2ccc(F)cc2F)CC1 (stereo not drawn) [RS-186, (Z)-5-(4-chlorobenzylidene)-3-(3-(4-(2-(2,4-difluorophenyl)-2-hydroxy-3-(1H-1,2,4-triazol-1-yl)propyl)piperazin-1-yl)-2-hydroxypropyl)thiazolidine-2,4-dione]
[1]; acidic buffer, 298.15 K
  effect of CD on the solubility (enhancement): 28 fold
[1]; buffer pH 7.4, 298.15 K
  effect of CD on the solubility (enhancement): 148 fold
[1]; pH 2.0, 298.15 K, 2-HP-β-CD 0 M, S2 10^3/M
  Experimental solubility (S2): 0.50 ± 0.01 10^3/M
[1]; pH 2.0, 298.15 K, 2-HP-β-CD 0.01 M, S2 10^3/M
  Experimental solubility (S2): 3.37 ± 0.08 10^3/M
[1]; pH 2.0, 298.15 K, 2-HP-β-CD 0.03 M, S2 10^3/M
  Experimental solubility (S2): 8.10 ± 0.22 10^3/M
[1]; pH 2.0, 298.15 K, 2-HP-β-CD 0.04 M, S2 10^3/M
  Experimental solubility (S2): 10.90 ± 0.31 10^3/M
[1]; pH 2.0, 298.15 K, 2-HP-β-CD 0.05 M, S2 10^3/M
  Experimental solubility (S2): 13.80 ± 0.40 10^3/M
[1]; pH 2.0, 303.15 K, 2-HP-β-CD 0 M, S2 10^3/M
  Experimental solubility (S2): 0.54 ± 0.01 10^3/M
[1]; pH 2.0, 303.15 K, 2-HP-β-CD 0.01 M, S2 10^3/M
  Experimental solubility (S2): 3.40 ± 0.04 10^3/M
[1]; pH 2.0, 303.15 K, 2-HP-β-CD 0.03 M, S2 10^3/M
  Experimental solubility (S2): 8.37 ± 0.18 10^3/M
[1]; pH 2.0, 303.15 K, 2-HP-β-CD 0.04 M, S2 10^3/M
  Experimental solubility (S2): 11.20 ± 0.19 10^3/M
[1]; pH 2.0, 303.15 K, 2-HP-β-CD 0.05 M, S2 10^3/M
  Experimental solubility (S2): 14.20 ± 0.22 10^3/M
[1]; pH 2.0, 310.15 K, 2-HP-β-CD 0 M, S2 10^3/M
  Experimental solubility (S2): 0.61 ± 0.02 10^3/M
[1]; pH 2.0, 310.15 K, 2-HP-β-CD 0.01 M, S2 10^3/M
  Experimental solubility (S2): 3.64 ± 0.04 10^3/M
[1]; pH 2.0, 310.15 K, 2-HP-β-CD 0.03 M, S2 10^3/M
  Experimental solubility (S2): 8.68 ± 0.19 10^3/M
[1]; pH 2.0, 310.15 K, 2-HP-β-CD 0.04 M, S2 10^3/M
  Experimental solubility (S2): 11.79 ± 0.33 10^3/M
[1]; pH 2.0, 310.15 K, 2-HP-β-CD 0.05 M, S2 10^3/M
  Experimental solubility (S2): 14.88 ± 0.24 10^3/M
[1]; pH 2.0, 313.15 K, 2-HP-β-CD 0 M, S2 10^3/M
  Experimental solubility (S2): 0.69 ± 0.02 10^3/M
[1]; pH 2.0, 313.15 K, 2-HP-β-CD 0.01 M, S2 10^3/M
  Experimental solubility (S2): 3.97 ± 0.03 10^3/M
[1]; pH 2.0, 313.15 K, 2-HP-β-CD 0.03 M, S2 10^3/M
  Experimental solubility (S2): 9.30 ± 0.31 10^3/M
[1]; pH 2.0, 313.15 K, 2-HP-β-CD 0.04 M, S2 10^3/M
  Experimental solubility (S2): 12.90 ± 0.33 10^3/M
[1]; pH 2.0, 313.15 K, 2-HP-β-CD 0.05 M, S2 10^3/M
  Experimental solubility (S2): 15.90 ± 0.40 10^3/M
[1]; pH 2.0
  order of the solubility: (FCZ) > (RS-186 ≥ R-98) > (L-173)
  solubility in pure buffer solution: 500 µM (≈ 310 µg/mL)
[1]; pH 7.4
  solubility of RS-186 greater than R-98: 1.5 fold
  order of the solubility: (FCZ) > (R-98 ≥ RS-186) >> (L-173)
  solubility in pure buffer solution: 27 µM (≈ 16.7 µg/mL)
[1]; pH 7.4, 298.15 K, 2-HP-β-CD 0 M, S2 10^4/M
  Experimental solubility (S2): 0.27 ± 0.01 10^4/M
[1]; pH 7.4, 298.15 K, 2-HP-β-CD 0.01 M, S2 10^4/M
  Experimental solubility (S2): 3.15 ± 0.02 10^4/M
[1]; pH 7.4, 298.15 K, 2-HP-β-CD 0.03 M, S2 10^4/M
  Experimental solubility (S2): 20.00 ± 0.32 10^4/M
[1]; pH 7.4, 298.15 K, 2-HP-β-CD 0.04 M, S2 10^4/M
  Experimental solubility (S2): 30.70 ± 0.51 10^4/M
[1]; pH 7.4, 298.15 K, 2-HP-β-CD 0.05 M, S2 10^4/M
  Experimental solubility (S2): 40.20 ± 0.58 10^4/M
[1]; pH 7.4, 303.15 K, 2-HP-β-CD 0 M, S2 10^4/M
  Experimental solubility (S2): 0.30 ± 0.01 10^4/M
[1]; pH 7.4, 303.15 K, 2-HP-β-CD 0.01 M, S2 10^4/M
  Experimental solubility (S2): 2.74 ± 0.03 10^4/M
[1]; pH 7.4, 303.15 K, 2-HP-β-CD 0.03 M, S2 10^4/M
  Experimental solubility (S2): 10.60 ± 0.33 10^4/M
[1]; pH 7.4, 303.15 K, 2-HP-β-CD 0.04 M, S2 10^4/M
  Experimental solubility (S2): 15.60 ± 0.41 10^4/M
[1]; pH 7.4, 303.15 K, 2-HP-β-CD 0.05 M, S2 10^4/M
  Experimental solubility (S2): 20.10 ± 0.21 10^4/M
[1]; pH 7.4, 310.15 K, 2-HP-β-CD 0 M, S2 10^4/M
  Experimental solubility (S2): 0.35 ± 0.01 10^4/M
[1]; pH 7.4, 310.15 K, 2-HP-β-CD 0.01 M, S2 10^4/M
  Experimental solubility (S2): 1.93 ± 0.03 10^4/M
[1]; pH 7.4, 310.15 K, 2-HP-β-CD 0.03 M, S2 10^4/M
  Experimental solubility (S2): 5.01 ± 0.05 10^4/M
[1]; pH 7.4, 310.15 K, 2-HP-β-CD 0.04 M, S2 10^4/M
  Experimental solubility (S2): 6.97 ± 0.08 10^4/M
[1]; pH 7.4, 310.15 K, 2-HP-β-CD 0.05 M, S2 10^4/M
  Experimental solubility (S2): 8.58 ± 0.08 10^4/M
[1]; pH 7.4, 313.15 K, 2-HP-β-CD 0 M, S2 10^4/M
  Experimental solubility (S2): 0.37 ± 0.01 10^4/M
[1]; pH 7.4, 313.15 K, 2-HP-β-CD 0.01 M, S2 10^4/M
  Experimental solubility (S2): 1.37 ± 0.06 10^4/M
[1]; pH 7.4, 313.15 K, 2-HP-β-CD 0.03 M, S2 10^4/M
  Experimental solubility (S2): 2.50 ± 0.03 10^4/M
[1]; pH 7.4, 313.15 K, 2-HP-β-CD 0.04 M, S2 10^4/M
  Experimental solubility (S2): 3.20 ± 0.05 10^4/M
[1]; pH 7.4, 313.15 K, 2-HP-β-CD 0.05 M, S2 10^4/M
  Experimental solubility (S2): 3.65 ± 0.05 10^4/M
[2]; CCD 0.01, 298.15 K
  Gibbs free energy of transfer from pure buffer pH 2.0 to CD solution: -4.73
[2]; CCD 0.01, 303.15 K
  Gibbs free energy of transfer from pure buffer pH 2.0 to CD solution: -4.83
[2]; CCD 0.01, 310.15 K
  Gibbs free energy of transfer from pure buffer pH 2.0 to CD solution: -5.12
[2]; CCD 0.01, 313.15 K
  Gibbs free energy of transfer from pure buffer pH 2.0 to CD solution: -5.43
[2]; CCD 0.03, 298.15 K
  Gibbs free energy of transfer from pure buffer pH 2.0 to CD solution: -6.90
[2]; CCD 0.03, 303.15 K
  Gibbs free energy of transfer from pure buffer pH 2.0 to CD solution: -7.10
[2]; CCD 0.03, 310.15 K
  Gibbs free energy of transfer from pure buffer pH 2.0 to CD solution: -7.36
[2]; CCD 0.03, 313.15 K
  Gibbs free energy of transfer from pure buffer pH 2.0 to CD solution: -7.66
[2]; CCD 0.04, 298.15 K
  Gibbs free energy of transfer from pure buffer pH 2.0 to CD solution: -7.64
[2]; CCD 0.04, 303.15 K
  Gibbs free energy of transfer from pure buffer pH 2.0 to CD solution: -7.84
[2]; CCD 0.04, 310.15 K
  Gibbs free energy of transfer from pure buffer pH 2.0 to CD solution: -8.15
[2]; CCD 0.04, 313.15 K
  Gibbs free energy of transfer from pure buffer pH 2.0 to CD solution: -8.52
[2]; CCD 0.05, 298.15 K
  Gibbs free energy of transfer from pure buffer pH 2.0 to CD solution: -8.22
[2]; CCD 0.05, 303.15 K
  Gibbs free energy of transfer from pure buffer pH 2.0 to CD solution: -8.43
[2]; CCD 0.05, 310.15 K
  Gibbs free energy of transfer from pure buffer pH 2.0 to CD solution: -8.75
[2]; CCD 0.05, 313.15 K
  Gibbs free energy of transfer from pure buffer pH 2.0 to CD solution: -9.06
[2]; Equation (16), pH 2.0, mole fraction scale
  slope (a) of ΔGC versus ΔGsol correlation, magnitude of the hydrophobic effect: −0.611
[2]; buffer pH 2.0, 298.15 K, calculated at maximal 0.05 M CD concentration
  solubilization: change of the standard Gibbs energy (ΔGslbz0,X): -1.96 kcal/mol
[2]; [3]
  change of the standard Gibbs energy of inclusion complex formation (ΔGC0,X): -3.7 kcal/mol
  enthalpy of inclusion complex formation (ΔHC0,X): -2.22 ± 0.311 kcal/mol
  entropy of inclusion complex formation (TΔSC0,X): 1.48 ± 0.22 kcal/mol
  solubilization entropy (TΔSslbz0,X): 3.59 ± 0.789 kcal/mol
[2]; [4]
  inherent solubility Gibbs energy (ΔGinh/sol0,X): 7.17 kcal/mol
  inherent solubility enthalpy (ΔHinh/sol0,X): 4.54 ± 0.526 kcal/mol
  inherent solubility entropy (TΔSinh/sol0,X): -2.63 ± 0.359 kcal/mol
[2]; complexation, pH 2.0, 298.15 K
  ratio |ΔHC0,X| > |TΔSC0,X|: about 1.5 fold
[2]; mole fraction scale, buffer pH 2.0, 298.15 K
  Complexation constant (KCX): 525.2 ± 52.9
[2]; pH 2.0
  contribution of the hydrophobic interactions to the driving force for complex stability: ~61%
